Read-outs that look alike come from different tables or passages of the source.

Assay [1] addresses T1, SARS-CoV-2 nsp3-mac1 (Severe acute respiratory syndrome coronavirus 2, UniProt P0DTD1). Kind of assay: biochemical. On the set-up: SARS-CoV-2 nsp3 macrodomain TR-FRET single point, per cent inhibition, n=2.
Assay [2] deals with T1, SARS-CoV-2 nsp3-mac1. Put plainly: biochemical. It is filed as biochemical. The conditions noted are these: SARS-CoV-2 nsp3 macrodomain TR-FRET single point.
Where [3] appears, read: read-out: perc_inhibition_mean, batch_name=ASAP-0000461-001.
[4] abbreviates: read-out: perc_inhibition_mean, batch_name=ASAP-0000299-001.
The mark [5] stands for this setting: read-out: perc_inhibition_mean, batch_name=ASAP-0000341-001.
[6] abbreviates: read-out: perc_inhibition_mean, batch_name=ASAP-0000336-001.
The mark [7] stands for this setting: read-out: perc_inhibition_mean, batch_name=ASAP-0000348-001.
Setting [8] is: read-out: perc_inhibition_mean, batch_name=ASAP-0000451-001.
[9] abbreviates: read-out: perc_inhibition_mean, batch_name=ASAP-0000354-001.
[10] abbreviates: read-out: perc_inhibition_mean, batch_name=ASAP-0000291-001.
The mark [11] stands for this setting: read-out: perc_inhibition_mean, batch_name=ASAP-0000360-001.
Setting [12] is: read-out: perc_inhibition_mean, batch_name=ASAP-0000286-001.
[13] abbreviates: read-out: perc_inhibition_mean, batch_name=ASAP-0000402-001.

Take `O=C(N[C@@H](C(=O)O)[C@@H](O)Cc1ccccc1)c1ncnc2[nH]ccc12` [ASAP-0000461]: in assay [1] (setting [3]), the inhibition at 49.75 µM came out at 3.79% and the inhibition at 99.5 µM came to 12.3%. For the same compound, in assay [2] (concentration 49.75 uM), the perc_inhibition_mean is recorded as 3.789%. The perc_inhibition_mean in assay [2] (concentration 99.5 uM) came to 12.267%.
Turning to `OC[C@@]1(Cc2ccc(F)cc2)CCN(c2ncnc3[nH]ccc23)C1` [ASAP-0000194], in assay [1] (read-out: perc_inhibition_mean, batch_name=ASAP-0000194-001), the inhibition at 50 µM was 5.07%. In addition, the perc_inhibition_mean in assay [2] (concentration 50.0 uM) is listed as 5.07%.
In the case of `CCN(Cc1cccnc1)C(=O)c1ccc(NC(=O)Nc2ccccc2)cc1` [ASAP-0000299], in assay [1] (setting [4]), the inhibition at 49.75 µM came to 3.63% and the inhibition at 99.5 µM is -7.09%. For the same compound, in assay [2] (concentration 49.75 uM, n=2), the perc_inhibition_mean came to 3.632%. For the same compound, in assay [2] (concentration 99.5 uM, n=2), the perc_inhibition_mean is reported as -7.091%.
As to `O=C(NCc1cn[nH]c1)c1cnn2ccc(C3CCN(C(=O)c4ccccc4)CC3)cc12` [ASAP-0000341], the inhibition at 49.75 µM in assay [1] (setting [5]) was -2.37%. The inhibition at 99.5 µM in assay [1] (setting [5]) was -4.5%. Moreover, the perc_inhibition_mean is -2.366% in assay [2] (concentration 49.75 uM, n=2) and -4.505% in assay [2] (concentration 99.5 uM, n=2).
Turning to `O=C(Nc1ccc(O)cc1)Nc1ccc(Oc2ccccc2)cc1` [ASAP-0000069], the inhibition at 50 µM in assay [1] (read-out: perc_inhibition_mean, batch_name=ASAP-0000069-001) was -3.31%. Moreover, the perc_inhibition_mean in assay [2] (concentration 50.0 uM) is -3.306%.
Take `Nc1c(O)cccc1C(=O)N(CCC(=O)N1CCNCC1)Cc1cccc(Cl)c1` [ASAP-0000336]: in assay [1] (setting [6]), the inhibition at 49.75 µM is -1.24% and the inhibition at 99.5 µM was 1.46%. Besides, the perc_inhibition_mean in assay [2] (concentration 49.75 uM, n=2) was -1.238%. Also, in assay [2] (concentration 99.5 uM, n=2), the perc_inhibition_mean worked out at 1.457%.
As to `O=C(NCc1c[nH]nn1)c1cnn2ccc(C3CCN(C(=O)c4ccccc4)CC3)cc12` [ASAP-0000348], in assay [1] (setting [7]), the inhibition at 49.75 µM was -2.86% and the inhibition at 99.5 µM amounted to 2.17%. In addition, the perc_inhibition_mean in assay [2] (concentration 49.75 uM, n=2) is listed as -2.856%. For the same compound, the perc_inhibition_mean in assay [2] (concentration 99.5 uM, n=2) was 2.165%.
Regarding `O=C(O)c1ccc(C(=O)N2CCC(c3ccn4ncc(C(=O)N5CCCCC5)c4c3)CC2)o1` [ASAP-0000451], in assay [1] (setting [8]), the inhibition at 49.75 µM is 40.5% and the inhibition at 99.5 µM was found to be 58.1%. In addition, the perc_inhibition_mean in assay [2] (concentration 49.75 uM) was determined as 40.495%. Also, in assay [2] (concentration 99.5 uM), the perc_inhibition_mean came out at 58.121%.
On to `Cc1ccc(NC(=O)c2cnn3ccc(C4CCN(C(=O)c5ccccc5)CC4)cc23)cc1C(=O)O` [ASAP-0000354], for which, in assay [1] (setting [9]), the inhibition at 49.75 µM was -1.05% and the inhibition at 99.5 µM is -0.624%. The perc_inhibition_mean in assay [2] (concentration 49.75 uM) is -1.047%. The perc_inhibition_mean in assay [2] (concentration 99.5 uM) is listed as -0.624%.
For `O[C@@]1(C(F)(F)F)CCCN(c2ncnc3n[nH]cc23)CC1` [ASAP-0000057], the inhibition at 50 µM in assay [1] (read-out: perc_inhibition_mean, batch_name=ASAP-0000057-001) was -4.14%. Moreover, the perc_inhibition_mean in assay [2] (concentration 50.0 uM) is -4.139%.
With `COc1nc2cc(NC(=O)c3cc(N4CCNC4=O)ccc3F)ccc2[nH]1` [ASAP-0000070], the inhibition at 50 µM in assay [1] (read-out: perc_inhibition_mean, batch_name=ASAP-0000070-001) is -4.21%. For the same compound, the perc_inhibition_mean in assay [2] (concentration 50.0 uM) was -4.208%.
Regarding `C[C@H](NC(=O)c1ccc(NC(=O)Nc2ccccc2)cc1)c1ccccn1` [ASAP-0000291], in assay [1] (setting [10]), the inhibition at 49.75 µM turned out to be 2.45%. The inhibition at 99.5 µM in assay [1] (setting [10]) is 0.349%. The perc_inhibition_mean came to 2.448% in assay [2] (concentration 49.75 uM, n=2) and 0.349% in assay [2] (concentration 99.5 uM, n=2).
`O=C(O)c1ccsc1C(=O)N1CCC(c2ccn3ncc(C(=O)N4CCCCC4)c3c2)CC1` [ASAP-0000360]: the inhibition at 49.75 µM in assay [1] (setting [11]) was 45%. Also, the inhibition at 99.5 µM in assay [1] (setting [11]) came to 61.2%. Also, the results for the perc_inhibition_mean in assay [2] (concentration 49.75 uM) and in assay [2] (concentration 99.5 uM) were 45.022% and 61.208%, respectively.
Take `O=S(=O)(Nc1ncccn1)c1ccc2oc3ccccc3c2c1` [ASAP-0000097]: the inhibition at 50 µM in assay [1] (read-out: perc_inhibition_mean, batch_name=ASAP-0000097-001) is -3%. Further, the perc_inhibition_mean in assay [2] (concentration 50.0 uM) is -3.004%.
Turning to `CCn1cnc(Nc2ncnc3c2ncn3Cc2cc(OC)no2)c1` [ASAP-0000286], in assay [1] (setting [12]), the inhibition at 49.75 µM was -16.7% and the inhibition at 99.5 µM is -12.8%. Further, the perc_inhibition_mean in assay [2] (concentration 49.75 uM, n=2) is recorded as -16.725%. For the same compound, the perc_inhibition_mean in assay [2] (concentration 99.5 uM, n=2) is listed as -12.789%.
With `O=C(c1ccnc(S)c1)N1CCC(c2ccn3ncc(C(=O)N4CCCCC4)c3c2)CC1` [ASAP-0000402], the inhibition at 49.75 µM in assay [1] (setting [13]) came to 20.3%. Also, the inhibition at 99.5 µM in assay [1] (setting [13]) came to 35.5%. The perc_inhibition_mean in assay [2] (concentration 49.75 uM) was 20.252%; in assay [2] (concentration 99.5 uM), 35.496%.

The values are drawn from publication doi:10.1101/2024.08.19.608619, “Discovery of potent SARS-CoV-2 nsp3 macrodomain inhibitors uncovers lack of translation to cellular antiviral response” (bioRxiv, 2024).
